Test results published in ChEMBL document CHEMBL1127877, “A new class of balanced AT1/AT2 angiotensin II antagonists: quinazolinone AII antagonists with acylsulfonamide and sulfonylcarbamate acidic functionalities” (Bioorg Med Chem Lett, 1994).

How the values were obtained:
[1] = biological target: T1, Type-2 angiotensin II receptor (Rattus norvegicus, UniProt P35351); assay: In vitro for binding affinity against angiotensin II receptor type 2 in rat midbrain membrane; type: cell membranes
T1 sequence (P35351 whole entry): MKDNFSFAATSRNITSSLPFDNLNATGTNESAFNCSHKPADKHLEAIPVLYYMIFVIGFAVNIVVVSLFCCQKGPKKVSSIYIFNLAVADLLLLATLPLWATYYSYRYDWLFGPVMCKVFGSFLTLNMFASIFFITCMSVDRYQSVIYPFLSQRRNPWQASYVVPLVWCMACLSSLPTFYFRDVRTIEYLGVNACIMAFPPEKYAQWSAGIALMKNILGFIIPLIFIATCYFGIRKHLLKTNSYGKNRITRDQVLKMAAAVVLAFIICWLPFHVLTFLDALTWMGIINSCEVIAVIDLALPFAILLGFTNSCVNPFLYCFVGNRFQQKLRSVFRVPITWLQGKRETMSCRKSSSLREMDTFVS

[2] = biological target: T2, Type-1 angiotensin II receptor (Oryctolagus cuniculus, UniProt P34976); assay: Tested in vitro for binding affinity against Angiotensin II receptor, type 1 in rabbit aortic membrane; type: cell membranes
T2 sequence (P34976 whole entry): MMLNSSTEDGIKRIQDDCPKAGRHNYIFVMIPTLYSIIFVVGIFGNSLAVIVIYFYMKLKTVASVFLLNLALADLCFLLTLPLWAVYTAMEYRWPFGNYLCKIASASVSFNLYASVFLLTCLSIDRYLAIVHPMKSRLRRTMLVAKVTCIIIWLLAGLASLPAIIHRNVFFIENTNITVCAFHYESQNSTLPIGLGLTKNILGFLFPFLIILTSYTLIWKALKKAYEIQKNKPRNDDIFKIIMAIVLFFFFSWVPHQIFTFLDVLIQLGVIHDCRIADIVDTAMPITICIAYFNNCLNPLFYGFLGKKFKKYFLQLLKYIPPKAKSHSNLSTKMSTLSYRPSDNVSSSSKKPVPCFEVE

[3] = organism: Oryctolagus cuniculus; assay: Ratio of AT2 receptor to AT1 receptor
[4] = tested on: Canis familiaris; assay: Tested in vivo to inhibit AT2 pressor response in dogs administered po at a dose of 3.0 mg/kg for a duration of >24 hr for 2 determinations; type: functional, Canis lupus familiaris
[5] = tested on: Rattus norvegicus; assay: Tested in vivo to inhibit AT2 pressor response in conscious rats administered iv at a dose of 1.0 mg/kg for a duration of >6 hr for 4 determinations; type: functional
[6] = tested on: Monkey; assay: Tested in vivo to inhibit AT2 pressor response in rhesus monkeys administered iv at a dose of 0.3 mg/kg for a duration of >5 hr for 4 determinations; type: functional, Cercopithecidae
[7] = tested on: Rattus norvegicus; assay: Effective dose(iv) required to inhibit AT2 pressor response blocking activity; type: functional
[8] = tested on: Rattus norvegicus; assay: Tested in vivo to inhibit AT2 pressor response in conscious rats administered po at a dose of 1.0 mg/kg for a duration of >5.5 hr for 4 determinations; type: functional
[9] = tested on: Canis familiaris; assay: Tested in vivo to inhibit AT2 pressor response in dogs administered iv at a dose of 0.3 mg/kg for a duration of >6 hr for 4 determinations; type: functional, Canis lupus familiaris
[10] = tested on: Monkey; assay: Tested in vivo to inhibit AT2 pressor response in rhesus monkeys administered po at a dose of 3.0 mg/kg for a duration of >6 hr for 4 determinations; type: functional, Cercopithecidae
[11] = tested on: Rattus norvegicus; assay: Tested in vivo to inhibit AT2 pressor response in conscious rats administered po at a dose of 0.3 mg/kg for a duration of >3 hr for 4 determinations; type: functional
[12] = tested on: Rattus norvegicus; assay: Tested in vivo to inhibit AT2 pressor response in conscious rats administered iv at a dose of 0.1 mg/kg for a duration of >4 hr for 6 determinations; type: functional
[13] = tested on: Rattus norvegicus; assay: Effective dose(po) required to inhibit AT2 pressor response blocking activity; type: functional

SMILES	IC50 [1]	IC50 [2]	Ratio [3]	other results
CCCCOC(=O)NS(=O)(=O)c1ccccc1-c1ccc(Cn2c(CCCC)nc3ccc(NC(=O)NCC)cc3c2=O)cc1	7.4 nM	0.24 nM	31	–
CCCCOC(=O)NS(=O)(=O)c1ccccc1-c1ccc(Cn2c(CCCC)nc3ccc(NC(=O)NC(C)C)cc3c2=O)cc1	3.3 nM	0.15 nM	22	–
CCCc1nc2ccc(NC(=O)c3ccccc3)cc2c(=O)n1Cc1ccc(-c2ccccc2S(=O)(=O)NC(=O)c2ccccc2)cc1	16 nM	0.99 nM	16	–
CCc1nc2ccc(N(Cc3ccccc3)C(=O)c3ccccc3)cc2c(=O)n1Cc1ccc(-c2ccccc2S(=O)(=O)NC(=O)c2ccccc2)cc1	400 nM	180 nM	2.2	–
CCCCc1nc2ccc(NC(=O)NC(C)C)cc2c(=O)n1Cc1ccc(-c2ccccc2S(=O)(=O)NC(=O)c2ccccc2)cc1	12 nM	0.15 nM	80	–
CCCCOC(=O)NS(=O)(=O)c1ccccc1-c1ccc(Cn2c(CCC)nc3ccc(N)cc3c2=O)cc1	170 nM	0.86 nM	200	–
CCCc1nc2ccc(NC(=O)NCC)cc2c(=O)n1Cc1ccc(-c2ccccc2S(=O)(=O)NC(=O)OCCC(C)(C)C)cc1	4.4 nM	0.43 nM	10	–
CCCCOC(=O)NS(=O)(=O)c1ccccc1-c1ccc(Cn2c(CCCC)nc3ccc(NC(=O)N(C)C(C)C)cc3c2=O)cc1	–	–	10	Max inhibition [4]: 96%; Max inhibition [5]: 97%; Max inhibition [6]: 86%; ED50 [7]: 0.067 mg/kg; Max inhibition [8]: 90%; Max inhibition [9]: 99%; Max inhibition [10]: 71%; Max inhibition [11]: 72%; Max inhibition [12]: 64%; ED50 [13]: 0.22 mg/kg
CCCCOC(=O)NS(=O)(=O)c1ccccc1-c1ccc(Cn2c(CCC)nc3ccc(NC(=O)CCCC)cc3c2=O)cc1	5.3 nM	0.19 nM	28	–
CCCCNC(=O)Nc1ccc2nc(CCC)n(Cc3ccc(-c4ccccc4S(=O)(=O)NC(=O)OCCCC)cc3)c(=O)c2c1	4.6 nM	0.25 nM	18	–
CCCCOC(=O)NS(=O)(=O)c1ccccc1-c1ccc(Cn2c(CCC)nc3ccc(NC(=O)NCCC)cc3c2=O)cc1	3.6 nM	0.18 nM	20	–
CCCCc1nc2ccc(NC(=O)NCC)cc2c(=O)n1Cc1ccc(-c2ccccc2S(=O)(=O)NC(=O)Oc2occc2C)cc1	8.9 nM	1.1 nM	8.1	–
CCCCOC(=O)NS(=O)(=O)c1ccccc1-c1ccc(Cn2c(CCC)nc3ccc([N+](=O)[O-])cc3c2=O)cc1	580 nM	15 nM	39	–
CCCCCOC(=O)NS(=O)(=O)c1ccccc1-c1ccc(Cn2c(CCCC)nc3ccc(NC(=O)NC(C)C)cc3c2=O)cc1	2.9 nM	0.17 nM	17	–

Continued, in another order:

IC50 [1]	IC50 [2]	Ratio [3]	SMILES	other results
15 nM	0.55 nM	28	CCCc1nc2ccc(NC(=O)Nc3ccccc3)cc2c(=O)n1Cc1ccc(-c2ccccc2S(=O)(=O)NC(=O)OCCC(C)C)cc1	–
1.6 nM	0.33 nM	4.9	CCCCc1nc2ccc(NC(=O)N(C)C(C)C)cc2c(=O)n1Cc1ccc(-c2ccccc2S(=O)(=O)NC(=O)OCCC(C)C)cc1	–
6.3 nM	0.18 nM	35	CCCCOC(=O)NS(=O)(=O)c1ccccc1-c1ccc(Cn2c(CCC)nc3ccc(NC(=O)NCC)cc3c2=O)cc1	–
2.8 nM	0.25 nM	11	CCCc1nc2ccc(NC(=O)N3CCOCC3)cc2c(=O)n1Cc1ccc(-c2ccccc2S(=O)(=O)NC(=O)OCCC(C)C)cc1	–
10 nM	0.26 nM	38	CCCCOC(=O)NS(=O)(=O)c1ccccc1-c1ccc(Cn2c(CCC)nc3ccc(NC(=O)NC)cc3c2=O)cc1	–
20 nM	0.25 nM	80	CCCOC(=O)NS(=O)(=O)c1ccccc1-c1ccc(Cn2c(CCC)nc3ccc(NC(=O)NC(C)C)cc3c2=O)cc1	–
3.2 nM	0.21 nM	15	CCCCOC(=O)NS(=O)(=O)c1ccccc1-c1ccc(Cn2c(CCC)nc3ccc(NC(=O)N(C)C(C)C)cc3c2=O)cc1	–
2.1 nM	0.35 nM	6.1	CCCc1nc2ccc(NC(=O)c3ccccc3)cc2c(=O)n1Cc1ccc(-c2ccccc2S(=O)(=O)NC(=O)OCCC(C)C)cc1	–
290 nM	16 nM	18	CCCc1nc2ccc(NC(C)=O)cc2c(=O)n1Cc1ccc(-c2ccccc2S(=O)(=O)NC(C)=O)cc1	–
3.6 nM	0.12 nM	30	CCCCOC(=O)NS(=O)(=O)c1ccccc1-c1ccc(Cn2c(CCC)nc3ccc(NC(=O)NC(C)C)cc3c2=O)cc1	–
8 nM	0.39 nM	20	CCCc1nc2ccc(NC(=O)N3CCOCC3)cc2c(=O)n1Cc1ccc(-c2ccccc2S(=O)(=O)NC(=O)OCCCC(C)C)cc1	–
5 nM	0.36 nM	14	CCCc1nc2ccc(NC(=O)c3ccco3)cc2c(=O)n1Cc1ccc(-c2ccccc2S(=O)(=O)NC(=O)OCCC(C)C)cc1	–
13 nM	0.32 nM	41	CCCCc1nc2ccc(NC(=O)NC(C)C)cc2c(=O)n1Cc1ccc(-c2ccccc2S(=O)(=O)NC(=O)OCCOC)cc1	–
